Measurements reported in ChEMBL document CHEMBL1165865, “Design, synthesis and determination of antifungal activity of 5(6)-substituted benzotriazoles” (2010).
Converted amounts (≈) assume the structure as drawn.

Assays:
Format in all cases: functional
Candida parapsilosis = assay: Antifungal activity against Candida parapsilosis ATCC 22019 after 24 hrs by macrodilution method; conditions: Lodderomyces parapsilosis, ATCC 22019, 24 h
Nakaseomyces glabratus = assay: Antifungal activity against Candida glabrata ATCC 3916 after 24 hrs by macrodilution method; conditions: ATCC 3916, 24 h
Candida albicans = assay: Antifungal activity against Candida albicans ATCC 90028 after 24 hrs by macrodilution method; conditions: ATCC 90028, 24 h
Pichia kudriavzevii = assay: Antifungal activity against Candida krusei ATCC 30068 after 24 hrs by macrodilution method; conditions: ATCC 30068, 24 h
Aspergillus niger = assay: Antifungal activity against Aspergillus niger DSMZ 737 after 24 hrs by macrodilution method; conditions: DSMZ 737, 24 h
Saccharomyces cerevisiae = assay: Antifungal activity against Saccharomyces cerevisiae DSMZ 1333 after 24 hrs by macrodilution method; conditions: DSMZ 1333, 24 h

Compound | MIC (Candida parapsilosis) [µg/mL] | MIC (Nakaseomyces glabratus) [µg/mL] | MIC (Candida albicans) [µg/mL] | MIC (Pichia kudriavzevii) [µg/mL] | MIC (Aspergillus niger) [µg/mL] | MIC (Saccharomyces cerevisiae) [µg/mL]
Cc1ccc2c(c1)nnn2CC(O)(Cn1cncn1)c1ccc(F)cc1F (racemic) | 12.5 (≈ 33.8 µM) | 25 (≈ 67.5 µM) | 12.5 (≈ 33.8 µM) | 25 (≈ 67.5 µM) | 50 (≈ 135 µM) | 6.2 (≈ 16.7 µM)
O=[N+]([O-])c1ccc2nnn(CC(O)(Cn3cncn3)c3ccc(F)cc3F)c2c1 (racemic) | 100 (≈ 249 µM) | > 100 | 50 (≈ 125 µM) | > 100 | 100 (≈ 249 µM) | 100 (≈ 249 µM)
OC(Cn1cncn1)(Cn1nnc2cccnc21)c1ccc(F)cc1F (racemic) | 25 (≈ 70 µM) | 100 (≈ 280 µM) | 6.2 (≈ 17.4 µM) | 100 (≈ 280 µM) | 100 (≈ 280 µM) | 50 (≈ 140 µM)
OC(Cn1cncn1)(Cn1nnc2cc(F)ccc21)c1ccc(F)cc1F (racemic) | 3.1 (≈ 8.28 µM) | 25 (≈ 66.8 µM) | 25 (≈ 66.8 µM) | 50 (≈ 134 µM) | 100 (≈ 267 µM) | 12.5 (≈ 33.4 µM)
O=[N+]([O-])c1ccc2c(c1)nnn2CC(O)(Cn1cncn1)c1ccc(F)cc1F (racemic) | 6.2 (≈ 15.4 µM) | 100 (≈ 249 µM) | 1.6 (≈ 3.99 µM) | 50 (≈ 125 µM) | 100 (≈ 249 µM) | 12.5 (≈ 31.1 µM)
OC(Cn1cncn1)(Cn1nnc2ccc(F)cc21)c1ccc(F)cc1F (racemic) | 25 (≈ 66.8 µM) | > 100 | 12.5 (≈ 33.4 µM) | > 100 | > 100 | 6.2 (≈ 16.6 µM)
Cc1cc2nnn(CC(O)(Cn3cncn3)c3ccc(F)cc3F)c2cc1C (racemic) | 50 (≈ 130 µM) | 100 (≈ 260 µM) | 12.5 (≈ 32.5 µM) | > 100 | 100 (≈ 260 µM) | 50 (≈ 130 µM)
OC(Cn1cncn1)(Cn1nnc2cc(Cl)ccc21)c1ccc(F)cc1F (racemic) | 12.5 (≈ 32 µM) | 50 (≈ 128 µM) | 6.2 (≈ 15.9 µM) | > 100 | 25 (≈ 64 µM) | 6.2 (≈ 15.9 µM)
OC(Cn1cncn1)(Cn1nnc2ccc(Cl)cc21)c1ccc(F)cc1F (racemic) | 100 (≈ 256 µM) | > 100 | 6.2 (≈ 15.9 µM) | 100 (≈ 256 µM) | > 100 | 100 (≈ 256 µM)
Cc1ccc2nnn(CC(O)(Cn3cncn3)c3ccc(F)cc3F)c2c1 (racemic) | 6.2 (≈ 16.7 µM) | 50 (≈ 135 µM) | 25 (≈ 67.5 µM) | 25 (≈ 67.5 µM) | 12.5 (≈ 33.8 µM) | 6.2 (≈ 16.7 µM)
COc1ccc2c(c1)nnn2CC(O)(Cn1cncn1)c1ccc(F)cc1F (racemic) | 12.5 (≈ 32.4 µM) | 50 (≈ 129 µM) | 12.5 (≈ 32.4 µM) | 50 (≈ 129 µM) | 100 (≈ 259 µM) | 25 (≈ 64.7 µM)
Cc1cc2nn(CC(O)(Cn3cncn3)c3ccc(F)cc3F)nc2cc1C (racemic) | 3.1 (≈ 8.06 µM) | 25 (≈ 65 µM) | 1.6 (≈ 4.16 µM) | 100 (≈ 260 µM) | 25 (≈ 65 µM) | 6.2 (≈ 16.1 µM)
OC(Cn1cncn1)(Cn1nnc2ccccc21)c1ccc(F)cc1F (racemic) | 0.8 (≈ 2.25 µM) | 25 (≈ 70.2 µM) | 0.8 (≈ 2.25 µM) | 25 (≈ 70.2 µM) | > 100 | 1.6 (≈ 4.49 µM)
C[C@@H]1[C@H](O)[C@@H](C)/C=C/C=C/C=C/C=C/C=C/C=C/C=C/[C@H](O[C@@H]2O[C@H](C)[C@@H](O)[C@H](N)[C@@H]2O)C[C@@H]2O[C@](O)(C[C@@H](O)C[C@@H](O)[C@H](O)CC[C@@H](O)C[C@@H](O)CC(=O)O[C@H]1C)C[C@H](O)[C@H]2C(=O)O [AMPHOTERICIN B] | 0.4 (≈ 0.433 µM) | 0.4 (≈ 0.433 µM) | 0.4 (≈ 0.433 µM) | 0.4 (≈ 0.433 µM) | 0.8 (≈ 0.866 µM) | 0.4 (≈ 0.433 µM)
OC(Cn1cncn1)(Cn1cncn1)c1ccc(F)cc1F [FLUCONAZOLE] | 0.8 (≈ 2.61 µM) | 50 (≈ 163 µM) | 0.8 (≈ 2.61 µM) | 50 (≈ 163 µM) | > 100 | 0.8 (≈ 2.61 µM)
